Data: patent publication US20240408169A1 (priority 2023, published 2024)
Where two headings read alike, the source gives them in different places. *1 amine or outer side, *2 acyl side, *3 side chain or, on linkers, in order; H or OH if unused. Where a SMILES comes first, the peptide text is derived from it. Bridges are numbered along the chain shown (N, C = ends). [ ]: non-standard residue; d: D form. The star is where a group is joined. X39 = CN1CCC(n2cc(-c3ccc(-c4ccc(Cl)cc4C[C@@H](C(=O)[*:2])N(C)[*:1])cc3)cn2)CC1; X85 = CN([C@@H](Cc1cc(Cl)ccc1-c1ccc([C@]23CCOC[C@H]2C3)nc1)C(=O)[*:2])[*:1]; X57 = CC(C)C(=O)N1C2C=C(c3ccc(Cl)cc3C[C@@H](C(=O)[*:2])N(C)[*:1])CC1CC2; X71 = CN([C@@H](Cc1cc(Cl)ccc1-c1ccc(N2CCOCC2)c(F)c1)C(=O)[*:2])[*:1]; X56 = CN1CCc2cc(-c3ccc(Cl)cc3C[C@@H](C(=O)[*:2])N(C)[*:1])ccc2C1; X89 = CN([C@@H](Cc1cc(Cl)ccc1-c1cnn(CC#N)c1)C(=O)[*:2])[*:1]; NMehhhLys(Me) = CN([C@@H](CCCCCCCN(C)[*:3])C(=O)[*:2])[*:1]; Spiro(3.3)heptane2CO(2-CF3) = O=C(C1(C(F)(F)F)CC2(CCC2)C1)*; X22 = CN([C@@H](Cc1cc(Cl)ccc1-c1cnn(C)c1)C(=O)[*:2])[*:1]; NMe(hhhLys) = CN([C@@H](CCCCCCCN[*:3])C(=O)[*:2])[*:1]; Cyclobutanecarbonyl(1-CF3) = O=C(C1(C(F)(F)F)CCC1)*; cBuCO(3,3-F2-1-CF3) = O=C(C1(C(F)(F)F)CC(F)(F)C1)*; X4 = Cc1ccc(Cl)cc1C[C@@H](C(=O)[*:2])N(C)[*:1]; Pro(trans-4-F) = O=C(O)[C@@H]1C[C@@H](F)CN1; Gly(cPr) = N[C@H](C(=O)O)C1CC1

Columns and labels:
CyclinB1/CDK1 = molecular target: T1, CyclinB1/CDK1 (Homo sapiens, UniProt P14635); experiment: Fluorescence Polarization (FP) competitive binding assay, Cyclin B1/Cdk1;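 also: fluorescence polarization read after equilibration at room temperature, with IC50 taken from serially diluted dose-response curves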
T1 construct: purchased Eurofins, discovery 14-450

NCI-H1048 cells = experiment: MTT proliferation assay, NCI-H1048; format: cell-based; details: 5 days compound exposure, 1:3 serial dilution starting at 10 μM;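 also: Dose-response in 96-well plates over 8 or 10 concentration points, with exposure spanning 3-4 cell doublings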
WI-38 cells = experiment: MTT proliferation assay, WI-38; format: cell-based; details: 3 days compound exposure, 1:3 serial dilution starting at 10 μM;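 also: Eight- or ten-point dilution series, with exposure length chosen to span about three to four cell doublings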
OVCAR3 cells = experiment: MTT proliferation assay, OVCAR3; format: cell-based; details: 5 days compound exposure, 1:3 serial dilution starting at 10 μM;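 also: compound given as an 8- or 10-point series, one day after plating, with exposure covering roughly 3-4 cell doublings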
CyclinE1/CDK2 = molecular target: T2, CyclinE1/CDK2 (Homo sapiens, UniProt P24864); experiment: Fluorescence Polarization (FP) competitive binding assay, Cyclin E1/Cdk2;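 also: readings taken after two-hour equilibration at room temperature in HEPES buffer with NaCl, DTT, NP-40 and BSA, IC50 fitted from eight-concentration serial dilution series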
T2 construct: purchased Eurofins, discovery 14-475

CyclinA2/CDK2 = molecular target: T3, CyclinA2/CDK2 (Homo sapiens, UniProt P20248); experiment: Fluorescence Polarization (FP) competitive binding assay, Cyclin A2/Cdk2;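 also: plates equilibrated two hours at room temperature before polarization reading, IC50 fitted from eight-concentration compound titration curves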
T3 construct: purchased CRELUX Protein Services

[1] = read-out: Cyclin B FP IC50; 10 nM Cyclin B1/Cdk1, 2 nM FAM probe; average of 2-3 independent experiments
[2] = 10 nM Cyclin B1/Cdk1, 2 nM FAM probe; average of 2-3 independent experiments; read-out: Cyclin B FP IC50
[3] = 10 nM Cyclin E1/Cdk2, 2 nM FAM probe, average of 2-3 independent experiments, read-out: Cyclin E FP IC50
[4] = 8 nM Cyclin A2/Cdk2, 2 nM FAM probe, average of 2-3 independent experiments, read-out: Cyclin A FP IC50

SMILES | IC50 (CyclinB1/CDK1; [1]) [nM] | GI50 (NCI-H1048 cells) [nM] | GI50 (WI-38 cells) [nM] | GI50 (OVCAR3 cells) [nM] | IC50 (CyclinE1/CDK2) [nM] | IC50 (CyclinA2/CDK2) [nM] | IC50 (CyclinB1/CDK1; [2]) [nM] | IC50 (CyclinE1/CDK2; [3]) [nM] | IC50 (CyclinA2/CDK2; [4]) [nM]
CC(C)C[C@@H]1NC(=O)[C@@H](N(C)C(=O)[C@@H](NC(=O)[C@@H]2C[C@@H](F)CN2C(=O)C2(C(F)(F)F)CC(F)(F)C2)C2CC2)CCCCCCCN(C)C(=O)[C@H](Cc2cc(Cl)ccc2-c2cnn(CC#N)c2)N(C)C1=O [Example 216] ({cBuCO(3,3-F2-1-CF3)}-[Pro(trans-4-F)][Gly(cPr)][NMehhhLys(Me)]L[X89]; lactam 3-C) | 20 | 10 | 15600 | 10 | 470 | 30 |  |  | 
CC(C)C[C@@H]1NC(=O)[C@@H](N(C)C(=O)[C@@H](NC(=O)[C@@H]2C[C@@H](F)CN2C(=O)C2(C(F)(F)F)CCC2)C2CC2)CC=CCCCCNC(=O)[C@H](Cc2cc(Cl)cnc2OC(C)C)N(C)C1=O (single isomer, unassigned) [Example 136-P1] |  | 830 | 3960 | 1770 |  |  | 20 | 320 | 140
CC(C)C[C@@H]1NC(=O)[C@@H](N(C)C(=O)[C@@H](NC(=O)[C@@H]2C[C@@H](F)CN2C(=O)C2(C(F)(F)F)CC(F)(F)C2)C2CC2)CCCCCCCNC(=O)[C@H](Cc2cc(Cl)ccc2C2=CC3CCC(C2)N3C(=O)C(C)C)N(C)C1=O (stereo partly drawn) [Example 193] ({cBuCO(3,3-F2-1-CF3)}-[Pro(trans-4-F)][Gly(cPr)][NMe(hhhLys)]L[X57]; lactam 3-C) |  | 10 | 7580 | 20 |  |  | 20 | 710 | 20
[2H]C([2H])([2H])N(C(=O)[C@@H](NC(=O)[C@@H]1C[C@@H](F)CN1C(=O)C1(C(F)(F)F)CC(F)(F)C1)C1CC1)[C@H]1CCCCCCCN(C)C(=O)[C@H](Cc2cc(Cl)ccc2-c2ccc(N3CCN(C)CC3)cc2)N(C)C(=O)[C@H](CC(C)C)NC1=O [Example 422] |  | 10 | 2360 | 10 |  |  | 20 | 420 | 20
CC(C)C[C@@H]1NC(=O)[C@@H](N(C)C(=O)[C@@H](NC(=O)[C@@H]2C[C@@H](F)CN2C(=O)C2(C(F)(F)F)CC(F)(F)C2)C2CC2)CCCCCCCN(C)C(=O)[C@H](Cc2cc(Cl)ccc2-c2ccc(N3CCOCC3)c(F)c2)N(C)C1=O [Example 348] ({cBuCO(3,3-F2-1-CF3)}-[Pro(trans-4-F)][Gly(cPr)][NMehhhLys(Me)]L[X71]; lactam 3-C) |  | 10 | 18000 | 10 |  |  | 20 | 880 | 20
CC(C)C[C@@H]1NC(=O)[C@@H](N(C)C(=O)[C@@H](NC(=O)[C@@H]2C[C@@H](F)CN2C(=O)C2(C(F)(F)F)CC(F)(F)C2)C2CC2)CCCCCCCN(C)C(=O)[C@H](Cc2cc(Cl)ccc2-c2ccc(-c3cnn(C4CCN(C)CC4)c3)cc2)N(C)C1=O [Example 380] ({cBuCO(3,3-F2-1-CF3)}-[Pro(trans-4-F)][Gly(cPr)][NMehhhLys(Me)]L[X39]; lactam 3-C) |  | 20 | 1170 | 30 |  |  | 20 | 2170 | 30
CC(C)C[C@@H]1NC(=O)[C@@H](N(C)C(=O)[C@@H](NC(=O)[C@@H]2C[C@@H](F)CN2C(=O)C2(C(F)(F)F)CC(F)(F)C2)C2CC2)CC=CCCCCN(C)C(=O)[C@H](Cc2cc(F)ccc2-c2cnn(C3CCC3)c2)N(C)C1=O [Example 88] |  | 30 | 7640 | 30 |  |  | 20 | 200 | 50
CC(C)C[C@@H]1NC(=O)[C@@H](N(C)C(=O)[C@@H](NC(=O)[C@@H]2C[C@@H](F)CN2C(=O)C2(C(F)(F)F)CC(F)(F)C2)C2CC2)CCCCCCCN(C)C(=O)[C@H](Cc2cc(Cl)ccc2-c2ccc([C@]34CCOC[C@H]3C4)nc2)N(C)C1=O [Example 369] ({cBuCO(3,3-F2-1-CF3)}-[Pro(trans-4-F)][Gly(cPr)][NMehhhLys(Me)]L[X85]; lactam 3-C) |  | 20 | 4540 | 20 |  |  | 20 | 1490 | 20
Cc1ccc(Cl)cc1C[C@H]1C(=O)NCCCCCCC[C@H](N(C)C(=O)[C@@H](NC(=O)[C@@H]2C[C@@H](F)CN2C(=O)C2(C(F)(F)F)CC(F)(F)C2)C2CC2)C(=O)N[C@@H](CC(C)C)C(=O)N1C [Example 270] ({cBuCO(3,3-F2-1-CF3)}-[Pro(trans-4-F)][Gly(cPr)][NMe(hhhLys)]L[X4]; lactam 3-C) |  | 80 | 13400 | 70 |  |  | 20 | 370 | 60
CC(C)C[C@@H]1NC(=O)[C@@H](N(C)C(=O)[C@@H](NC(=O)[C@@H]2C[C@@H](F)CN2C(=O)C2(C(F)(F)F)CCC2)C2CC2)CC=CCCCCN(C)C(=O)[C@H](Cc2cc(Cl)ccc2Cl)N(C)C1=O [Example 48] |  | 40 | 15800 | 50 |  |  | 20 | 130 | 80
CC(C)C[C@@H]1NC(=O)[C@@H](N(C)C(=O)[C@@H](NC(=O)[C@@H]2C[C@@H](F)CN2C(=O)C2(C(F)(F)F)CCC2)C2CC2)C/C=C\CCCCN(C)C(=O)[C@H](Cc2cc(Cl)ccc2-c2cnn(C)c2)N(C)C1=O [Example 173] |  | 10 | 12700 | 10 |  |  | 20 | 100 | 20
CC(C)C[C@@H]1NC(=O)[C@@H](N(C)C(=O)[C@@H](NC(=O)[C@@H]2C[C@@H](F)CN2C(=O)C2(C(F)(F)F)CCC2)C2CC2)CCCCCCCN(C)C(=O)[C@H](Cc2cc(Cl)ccc2-c2cnn(C)c2)N(C)C1=O [Example 185] ({Cyclobutanecarbonyl(1-CF3)}-[Pro(trans-4-F)][Gly(cPr)][NMehhhLys(Me)]L[X22]; lactam 3-C) |  | 10 | 10400 | 10 |  |  | 20 | 110 | 20
CC(C)C[C@@H]1NC(=O)[C@@H](N(C)C(=O)[C@@H](NC(=O)[C@@H]2C[C@@H](F)CN2C(=O)C2(C(F)(F)F)CC(F)(F)C2)C2CC2)C/C=C\CCCCN(C)C(=O)[C@H](Cc2cc(Cl)ccc2-c2cnn(C)c2)N(C)C1=O [Example 168] |  | 10 | 13100 | 10 |  |  | 20 | 160 | 20
CC(C)C[C@@H]1NC(=O)[C@@H](N(C)C(=O)[C@@H](NC(=O)[C@@H]2C[C@@H](F)CN2C(=O)C2(C(F)(F)F)CC3(CCC3)C2)C2CC2)CCCCCCCN(C)C(=O)[C@H](Cc2cc(Cl)ccc2-c2cnn(C)c2)N(C)C1=O [Example 203] ({Spiro(3.3)heptane2CO(2-CF3)}-[Pro(trans-4-F)][Gly(cPr)][NMehhhLys(Me)]L[X22]; lactam 3-C) | 20 | 60 | 3700 | 50 | 1260 | 40 |  |  | 
CC(C)C[C@@H]1NC(=O)[C@@H](N(C)C(=O)[C@@H](NC(=O)[C@@H]2C[C@@H](F)CN2C(=O)C2(C(F)(F)F)CC(F)(F)C2)C2CC2)CCCCCCCN(C)C(=O)[C@H](Cc2cc(Cl)ccc2-c2ccc3c(c2)CCN(C)C3)N(C)C1=O [Example 407] ({cBuCO(3,3-F2-1-CF3)}-[Pro(trans-4-F)][Gly(cPr)][NMehhhLys(Me)]L[X56]; lactam 3-C) |  | 10 | 3010 | 20 |  |  | 20 | 1460 | 20
